Reference: patent US8865182B2 (priority 2009, dated 2014)

tested on: HLA-B7 supertype (B*0702, B*3501, B*5101, B*5301, B*5401); assay type: binding, human

Sequence	# Alleles Bound
NPRMFLAMI (Influenza Virus) [SEQ ID NO: 252]	1
LPRRSGAAGA [SEQ ID NO: 132]	2
APPEQSRMQF (Influenza Virus) [SEQ ID NO: 305]	1
SPQLEGFSA (Influenza Virus) [SEQ ID NO: 196]	2
IPAEMLASI (Influenza Virus) [SEQ ID NO: 255]	4
APFSKDNSI (Influenza Virus) [SEQ ID NO: 102]	1
GPVHFRNQV (Influenza Virus) [SEQ ID NO: 301]	1
LPFHNVHPL [SEQ ID NO: 67]	5
APPKQSRMQF (Influenza Virus) [SEQ ID NO: 304]	1
NPALRMKWM (Influenza Virus) [SEQ ID NO: 299]	1
RPWVSFNQNL (Influenza Virus) [SEQ ID NO: 105]	1
APSPYNSRF (Influenza Virus) [SEQ ID NO: 103]	2
GPATAQMAL (Influenza Virus) [SEQ ID NO: 257]	2
IPKRNRSIL [SEQ ID NO: 259]	1
FPNEVGARIL (Influenza Virus) [SEQ ID NO: 302]	5
LPACVYGLAV (Influenza Virus) [SEQ ID NO: 133]	4
YPKVYKTYF (Influenza Virus) [SEQ ID NO: 300]	2
MPAHGPAKSM (Influenza Virus) [SEQ ID NO: 258]	4
RPCFWVELI [SEQ ID NO: 106]	1
